Results on 40 compounds are retold here after patent US6610846B1, “Heteroaromatic glucokinase activators” (Hoffman-La Roche Inc., priority 1999, dated 2003).

As a reminder, the melting point is the temperature, or range, at which the solid turns liquid.

The compound `O=C(Nc1nccs1)C(CC1CCCC1)c1cccc(S(=O)(=O)C(F)(F)F)c1` (stereo not shown) [Example 69, 3-Cyclopentyl-N-thiazol-2-yl-2-(3-trifluoromethanesulfonyl-phenyl)-propionamide] had a melting point of 61 to 64 °C.
Take `CS(=O)(=O)c1ccc(C(CC2CCCC2)C(=O)Nc2ccc(Br)cn2)cc1Br` (stereo not shown) [Example 74, 2-(3-Bromo-4-methanesulfonyl-phenyl)-N-(5-bromo-pyridin-2-yl)-3-cyclopentyl-propionamide]: the melting point was 83 to 86 °C.
For the compound `CS(=O)(=O)c1ccc(C(CC2CCCC2)C(=O)Nc2ccc(Br)cn2)cc1C(F)(F)F` (stereo not shown) [Example 156(A), N-(5-Bromo-pyridin-2-yl)-3-cyclopentyl-2-(4-methanesulfonyl-3-trifluoromethyl-phenyl)-propionamide], the melting point is 81 to 85 °C.
The value for `O=C(Nc1ccc(O)cn1)C(CC1CCCC1)c1ccc(Cl)c(Cl)c1` (stereo not shown) [Example 51, 3-Cyclopentyl-2-(3,4-dichloro-phenyl)-N-(5-hydroxy-pyridin-2-yl)-propionamide] was 79 to 81 °C.
For `CS(=O)(=O)c1ccc(C(CC2CCCC2)C(=O)Nc2nccs2)cc1NO` (stereo not shown) [Example 67, 3-Cyclopentyl-2-(3-hydroxyamino-4-methanesulfonyl-phenyl)-N-thiazol-2-yl-propionamide], the melting point was in the range of 124 to 126 °C.
In turn, `O=C(Nc1ccc(Br)cn1)[C@H](CC1CCCC1)c1ccc(Cl)c(Cl)c1` [Example 105, N-(5-Bromo-pyridin-2-yl)-3-cyclopentyl-2(R)-(3,4-dichloro-phenyl)-propionamide] returned a melting point of 107.3 to 109.9 °C.
The compound `CS(=O)(=O)c1ccc(C(CC2CCCC2)C(=O)Nc2ccncn2)cc1[N+](=O)[O-]` (stereo not shown) [Example 158, 3-Cyclopentyl-2-(4-methanesulfonyl-3-nitro-phenyl)-N-pyrimidin-4-yl-propionamide] showed a melting point of 91 to 95 °C.
As for `CS(=O)(=O)c1ccc(C(CC2CCCC2)C(=O)Nc2ccccn2)cc1S(C)(=O)=O` (stereo not shown), the melting point was 107 to 110 °C.
`CS(=O)(=O)c1ccc([C@@H](CC2CCCC2)C(=O)Nc2cnccn2)cc1` [Example 127, 3-Cyclopentyl-2(R)-(4-methylsulfonyl-phenyl)-N-pyrazin-2-yl-propionamide] came in with a melting point of 75 to 80 °C.
Take `CNC(=O)c1ccc(NC(=O)C(CC2CCCC2)c2ccc(Cl)c(Cl)c2)nc1` (stereo not shown) [Example 103, 6-[3-Cyclopentyl-2-(3,4-dichloro-phenyl)-propionylamino]-N-methyl-nicotinamide]: the melting point lay within 229.1 to 231.7 °C.
With `CSc1ccc(C(CC2CCCC2)C(=O)Nc2nccs2)cc1` (stereo not shown) [Example 9, 3-Cyclopentyl-2-(4-methylsulfanyl-phenyl)-N-thiazol-2-yl-propionamide], the melting point was in the range of 195 to 196 °C.
In turn, `Cc1nccc(NC(=O)C(CC2CCCC2)c2ccc(S(C)(=O)=O)c([N+](=O)[O-])c2)n1` (stereo not shown) [Example 159, 3-Cyclopentyl-2-(4-methanesulfonyl-3-nitro-phenyl)-N-(2-methyl-pyrimidin-4-yl)-propionamide] registered a melting point of 96 to 99 °C.
The value for `O=C(Nc1ncc[nH]1)C(CC1CCCC1)c1ccc(Cl)c(Cl)c1` (stereo not shown) [Example 55, 3-Cyclopentyl-2-(3,4-dichlorophenyl)-N-(1H-imidazol-2-yl)-propionamide] was 58 to 60 °C.
As for `O=C(Nc1ccc(C(F)(F)F)cn1)[C@H](CC1CCCC1)c1ccc(Cl)c(Cl)c1` [Example 101, 3-Cyclopentyl-2(R)-(3,4-dichloro-phenyl)-N-(5-trifluoromethyl-pyridin-2-yl)-propionamide], the melting point lay in the range of 113.8 to 117.5 °C.
In the case of `O=C(Nc1ncccn1)C(CC1CCCC1)c1ccc(Cl)c(Cl)c1` (stereo not shown) [Example 59, 3-Cyclopentyl-2-(3,4-dichlorophenyl)-N-pyrimidin-2-yl-propionamide], the melting point lay within 103 to 105 °C.
The compound `Nc1ccc(C(CC2CCCC2)C(=O)Nc2nccs2)cc1` (stereo not shown) [Example 4, 2-(4-Amino-phenyl)-3-cyclopentyl-N-thiazol-2-yl-propionamide] displayed a melting point of 102 to 107 °C.
The value for `CS(=O)(=O)c1ccc(C(CC2CCCC2)C(=O)Nc2cnccn2)cc1C#N` (stereo not shown) [Example 153, 2-(3-Cyano-4-methanesulfonyl-phenyl)-3-cyclopentyl-N-pyrazin-2-yl-propionamide] was 88 to 93 °C; that for `O=C(Nc1cccnn1)C(CC1CCCC1)c1ccc(Cl)c(Cl)c1` (stereo not shown) [Example 58, 3-Cyclopentyl-2-(3,4-dichlorophenyl)-N-pyridazin-3-yl-propionamide] was 70 to 71 °C; that for `O=C(Nc1nccs1)C(CC1CCCC1)c1cccc(Cl)c1` (stereo not shown) [Example 6, 2-(3-Chloro-phenyl)-3-cyclopentyl-N-thiazol-2-yl-propionamide] was 138.8 to 141.2 °C.
As for `CS(=O)(=O)c1ccc(C(CC2CCCC2)C(=O)Nc2ccc(C(=O)O)cn2)cc1` (stereo not shown) [Example 48, 6-[3-Cyclopentyl-2-(4-methanesulfonyl-phenyl)-propionylamino]-nicotinic acid], the melting point was 191 to 193 °C.
The value for `COC(=O)c1ccc(C(CC2CCCC2)C(=O)Nc2nccs2)cc1` (stereo not shown) [Example 117, 4-[2-Cyclopentyl-1-(thiazol-2-ylcarbamoyl)-ethyl]-benzoic acid methyl ester] was 54 to 56 °C.
The compound `CCS(=O)(=O)c1ccc(C(CC2CCCC2)C(=O)Nc2ccccn2)cc1` (stereo not shown) [Example 78, 3-Cyclopentyl-2-(4-ethanesulfonyl-phenyl)-N-pyridin-2-yl-propionamide] yielded a melting point of 144 to 145 °C.
Regarding `O=C(Nc1ccncn1)C(CC1CCCC1)c1cccc(C(F)(F)F)c1` (stereo not shown) [Example 165(A), 3-Cyclopentyl-N-pyrimidin-4-yl-2-(3-trifluoromethyl-phenyl)-propionamide], the melting point lay within 113 to 115 °C.
For `CS(=O)(=O)c1ccc(C(CC2CCCC2)C(=O)Nc2cc[nH]c(=O)n2)cc1[N+](=O)[O-]` (stereo not shown) [Example 160, 3-Cyclopentyl-2-(4-methanesulfonyl-3-nitro-phenyl)-N-(2-oxo-1,2-dihydro-pyrimidin-4-yl)-propionamide], the melting point is 256 to 258 °C (dec.).
With `CSc1ccc([C@@H](CC2CCCC2)C(=O)Nc2cnccn2)cc1` [Example 126, 3-Cyclopentyl-2(R)-(4-methylsulfanyl-phenyl)-N-pyrazin-2-yl-propionamide], the melting point is 128 to 130 °C.
On to `CS(=O)(=O)c1ccc(C(CC2CCCC2)C(=O)Nc2cnccn2)cc1[N+](=O)[O-]` (stereo not shown) [Example 161, 3-Cyclopentyl-2-(4-methanesulfonyl-3-nitro-phenyl)-N-pyrazin-2-yl-propionamide], for which the melting point lay within 104 to 108 °C.
For `O=C(Nc1nccs1)C(CC1CCCC1)c1ccc(O)c(F)c1` (stereo not shown) [Example 119, 3-Cyclopentyl-2-(3-fluoro-4-hydroxy-phenyl)-N-thiazol-2-yl-propionamide], the melting point was in the range of 199 to 201 °C.
The value for `COC(=O)c1csc(NC(=O)C(CC2CCCC2)c2ccc(Cl)cc2)n1` (stereo not shown) [Example 32, 2-[2-(4-Chloro-phenyl)-3-cyclopentyl-propionylamino]-thiazole-4-carboxylic acid methyl ester] was 156 to 157 °C; that for `Nc1cccc(C(CC2CCCC2)C(=O)Nc2nccs2)c1` (stereo not shown) [Example 5, 2-(3-Amino-phenyl)-3-cyclopentyl-N-thiazol-2-yl-propionamide] was 158 to 160 °C; that for `O=C(Nc1nccs1)C(CC1CCCC1)c1cccc(O)c1` (stereo not shown) [Example 111, 3-Cyclopentyl-2-(3-hydroxy-phenyl)-N-thiazol-2-yl-propionamide] was 177 to 179 °C.
On to `COc1ccc(C(CC2CCCC2)C(=O)Nc2nccs2)cc1F` (stereo not shown) [Example 118, 3-Cyclopentyl-2-(3-fluoro-4-methoxy-phenyl)-N-thiazol-2-yl-propionamide], for which the melting point was in the range of 51 to 53 °C.
The compound `CS(=O)(=O)c1ccc(C(CC2CCCC2)C(=O)Nc2ncc[nH]2)cc1[N+](=O)[O-]` (stereo not shown) [Example 162, 3-Cyclopentyl-N-(1 H-imidazol-2-yl)-2-(4-methanesulfonyl-3-nitro-phenyl)-propionamide] registered a melting point of 243 to 244 °C.
On to `O=C(Nc1nc(CCO)cs1)C(CC1CCCC1)c1ccc(Cl)c(Cl)c1` (stereo not shown) [Example 16, 3-Cyclopentyl-2-(3,4-dichlorophenyl)-N-[4-(2-hydroxyethyl)-thiazol-2-yl]-propionamide], for which the melting point is 85 to 86 °C.
`CS(=O)(=O)c1ccc(C(CC2CCCC2)C(=O)Nc2ccccn2)cc1F` (stereo not shown) [Example 136, 3-Cyclopentyl-2-(3-fluoro-4-methanesulfonyl-phenyl)-N-pyridin-2-yl-propionamide]: the melting point was in the range of 76 to 79 °C.
`Cc1cc(NC(=O)C(CC2CCCC2)c2ccc(Cl)c(Cl)c2)no1` (stereo not shown) [Example 56, 3-Cyclopentyl-2-(3,4-dichlorophenyl)-N-(5-methyl-isoxazol-3-yl)-propionamide] gave a melting point of 84 to 86 °C.
For the compound `O=C(Nc1ccncn1)[C@H](CC1CCCC1)c1ccc(Cl)c(Cl)c1` [Example 60, 3-Cyclopentyl-2(R)-(3,4-dichloro-phenyl)-N-pyrimidine-4-yl-propionamide], the melting point fell in the range of 166.5 to 169.3 °C.
The compound `COc1cccc(C(CC2CCCC2)C(=O)Nc2nccs2)c1` (stereo not shown) [Example 110, 3-Cyclopentyl-2-(3-methoxy-phenyl)-N-thiazol-2-yl-propionamide] showed a melting point of 44 to 45 °C.
The compound `CS(=O)(=O)c1ccc(C(CC2CCCC2)C(=O)Nc2ccncn2)cc1C#N` (stereo not shown) [Example 151, 2-(3-Cyano-4-methanesulfonyl-phenyl)-3-cyclopentyl-N-pyrimidin-4-yl-propionamide] registered a melting point of 79 to 84 °C.
Take `C[S+]([O-])c1ccc(C(CC2CCCC2)C(=O)Nc2nccs2)cc1` (stereo not shown) [Example 61, 3-Cyclopentyl-2-(4-methanesulfinyl-phenyl)-N-thiazol-2-yl-propionamide]: the melting point was 170 to 173 °C.
`CS(=O)(=O)c1ccc(C(CC2CCCC2)C(=O)Nc2nc(CCO)cs2)cc1` (stereo not shown) [Example 36, 3-Cyclopentyl-N-[4-(2-hydroxyethyl)-thiazol-2-yl]-2-(4-methanesulfonyl-phenyl)-propionamide]: the melting point was in the range of 84 to 87 °C.
